The target of assay [1] is T1, Proto-oncogene tyrosine-protein kinase Src (Homo sapiens, UniProt P12931). Briefly: Inhibition of binding to Src SH2 domain.
Assay [2] addresses T1, Proto-oncogene tyrosine-protein kinase Src. Briefly: Binding affinity for Src SH2 domain.

Data on 3 compounds can be found in ChEMBL document CHEMBL1131840, “Structure-based design and synthesis of a novel class of Src SH2 inhibitors” (Bioorg Med Chem Lett, 1999).

T1 sequence (P12931 2-536 limits assumed): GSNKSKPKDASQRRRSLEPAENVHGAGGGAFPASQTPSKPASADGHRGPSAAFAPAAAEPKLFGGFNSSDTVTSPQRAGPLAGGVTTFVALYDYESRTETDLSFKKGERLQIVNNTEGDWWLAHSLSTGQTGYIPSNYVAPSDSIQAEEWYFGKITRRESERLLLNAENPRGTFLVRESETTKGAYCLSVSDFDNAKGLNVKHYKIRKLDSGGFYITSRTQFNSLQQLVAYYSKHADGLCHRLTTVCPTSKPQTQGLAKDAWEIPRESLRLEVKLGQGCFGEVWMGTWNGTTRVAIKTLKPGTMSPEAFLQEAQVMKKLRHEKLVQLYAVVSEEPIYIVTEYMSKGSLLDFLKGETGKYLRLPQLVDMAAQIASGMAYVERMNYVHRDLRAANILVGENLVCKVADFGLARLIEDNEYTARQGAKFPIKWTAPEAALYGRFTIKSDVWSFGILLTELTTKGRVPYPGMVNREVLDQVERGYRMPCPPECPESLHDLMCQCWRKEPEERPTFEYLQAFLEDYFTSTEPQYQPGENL

What is called IC50 is the concentration needed to halve the response being measured. A higher IC50 goes with lower potency. As to `CC(=O)N[C@@H](Cc1ccc(OP(=O)(O)O)cc1)C(=O)NCc1cccc(CC2CCCCC2)c1`, the IC50 in assay [1] was determined as 769 µM.
For orientation: Kd means the equilibrium constant for the complex coming apart. Read a low Kd as a tighter complex. As to `CC[C@H](C)[C@H](NC(=O)[C@H](CCC(=O)O)NC(=O)[C@H](CCC(=O)O)NC(=O)[C@@H](N)Cc1ccc(OP(=O)(O)O)cc1)C(=O)O`, the Kd in assay [2] is 0.1 µM.
Take `CC[C@H](NC(=O)[C@H](Cc1ccc(OP(=O)(O)O)cc1)NC(C)=O)c1cccc(CC2CCCCC2)c1`: the IC50 in assay [1] was 306 µM.
